In patent US12325744B2, “Methods for reducing post-operative cognitive dysfunction (POCD)” (The Kennedy Trust for Rheumatology Research, priority 2010, dated 2025):
Entries after “also recorded” stand apart in the source; their conditions may differ.

Key:
C57-BL6 mice [1] = assay: Fear conditioning, freezing to context after tibial surgery; type: in vivo; settings: wild type mice, surgery 30 min after training, tested three days later
Experimental: (§1) Fear conditioning tests. Mice were conditioned 30 minutes or 3 days prior to intervention by training with two cycles of tone and foot-shock pairings. In delay fear conditioning a foot-shock was administered during the last 2 seconds of each 20 seconds-lasting tone.
(§2) In trace fear conditioning, the foot-shock onset, lasting 2 seconds as in the previous paradigm, followed a 20-second gap after each tone termination. Three days after conditioning, mice were placed back in the original conditioning chamber for 270 seconds, where no tone or shock were presented, to assess recall of contextual fear memory. After 3 h mice were placed in a novel environment (different context from training) to test for auditory-cued memory. Following an initial baseline period of 135 seconds during which freezing was scored in absence of noise, the auditory cue was presented for the final 135 seconds of the test, and freezing was again recorded. (For further details please refer to supplemental methods).
(§3) The behavioral study was conducted using a conditioning chamber (Med. Associates Inc., St. Albans, VT, USA). The back- and the side-walls of the chamber were made of aluminium, whereas the front door and the ceiling were of transparent Plexiglas. The floor of the chamber consisted of 36 stainless steel rods (1 mm diameter) spaced 0.5 cm apart (center-to-center). […]

C57-BL6 mice [2] = assay: Delay fear conditioning, auditory-cued test after tibial surgery; type: in vivo; settings: wild type mice, surgery with IL-1Ra pre-treatment
Experimental: as §1, §2, §3

microglia = assay: Hippocampal microglia anti-CD11b immunohistochemistry grading after LPS injection; type: in vivo, mice; settings: LPS 1 mg/kg i.p.; IL-1Ra pre-treatment; days 1 and 3
Experimental: Treatment. LPS derived from Escherichia Coli endotoxin ([…], InvivoGen, USA, 1 mg/kg) was dissolved in normal saline and injected intraperitoneally. IL-1Ra (Amgen, Anakinra 100 mg/kg, Nederlands) was given subcutaneously immediately before LPS administration. Dose response curve from LPS or IL-1Ra was obtained from our pilot studies to provoke or to suppress moderate degree of microglia activation respectively. Control animals were injected with equivalent volumes (0.1 ml) of saline. Mice from each treatment group were randomly assigned for assessment of either cytokine response or cognitive behavior, in order to obviate possible confounding effects of behavioral testing on inflammatory markers.
Immunohistochemistry (IHC). Mice were euthanized and perfused transcardially with ice-cold heparinized 0.1M phosphate buffer solution (PBS) followed by 4% paraformaldehyde in 0.1M PBS at pH 7.4 (VWR International, UK). The brains were harvested and post-fixed in 4% paraformaldehyde in 0.1M PBS at 4° C. and cryoprotected in 0.1M PBS solutions containing 15% sucrose for 24 hours (VWR International, UK) and then 30% sucrose for a further 48 hours. Brain tissue was freeze-mounted in OCT embedding medium (VWR International, UK). The 25 μm thick coronal sections of the hippocampus were cut sequentially in groups of 6 and mounted on Superfrost® plus slides (Menzel-Glaser, Germany). […]

IL-1Ra: IL-1 receptor antagonist (Amgen, Anakinra)
Freezing to context (delay fear conditioning) after surgery, effect of treatment (C57-BL6 mice [1]): prevented the decrement in postoperative freezing behavior; also recorded: significantly reduced the surgery-induced decrement in freezing behavior | Freezing in the auditory-cued test after delay fear conditioning (C57-BL6 mice [2]): showed no difference; also recorded: There was no difference between the groups | Reactive microglia in hippocampus after LPS, effect of IL-1Ra (microglia): Reduction in the number of reactive microglia was observed; also recorded: attenuated by IL-1Ra treatment; also recorded: effectively reduced the number of reactive microglia at days 1 and 3
